Measurements reported in ChEMBL document CHEMBL1201862, “PubChem BioAssay data set” (2004).
Calls of active or inactive are those of the source.

Legend:
[1] = molecular target: T1, Heat shock factor protein 1 (Mus musculus, UniProt P38532); test: HSF1 potentiators in luciferase reporter cells, confirmation, cell-based, NIH3T3, luminescence, dose retest (AID 435004); assay type: functional;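 also: stress induced by proteasome inhibitor MG132 added 30 min after compound; luciferase reporter driven by HSF1 response element in NIH3T3 cells; actives raise luminescence as potentiators of the MG132 stress response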
T1 sequence (P38532 whole entry): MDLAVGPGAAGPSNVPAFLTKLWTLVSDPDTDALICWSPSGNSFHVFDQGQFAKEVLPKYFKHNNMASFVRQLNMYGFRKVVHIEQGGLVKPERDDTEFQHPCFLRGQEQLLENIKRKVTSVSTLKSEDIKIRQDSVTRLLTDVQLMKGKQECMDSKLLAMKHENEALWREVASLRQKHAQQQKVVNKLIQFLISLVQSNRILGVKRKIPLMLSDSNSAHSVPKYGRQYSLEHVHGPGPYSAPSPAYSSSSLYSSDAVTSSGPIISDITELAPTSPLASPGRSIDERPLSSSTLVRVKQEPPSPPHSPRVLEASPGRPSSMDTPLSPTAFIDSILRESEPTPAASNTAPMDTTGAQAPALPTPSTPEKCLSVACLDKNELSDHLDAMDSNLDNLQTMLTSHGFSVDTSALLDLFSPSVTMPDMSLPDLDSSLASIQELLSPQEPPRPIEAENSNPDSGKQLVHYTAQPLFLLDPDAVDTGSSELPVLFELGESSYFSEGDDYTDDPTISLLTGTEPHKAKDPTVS

[2] = cells; assay type: functional, cell-based
[3] = molecular target: T2, Trace amine-associated receptor 1 (Homo sapiens, UniProt Q96RJ0); test: Fluorescence-based cell-based high throughput dose response assay to identify agonists of the human trace amine associated receptor 1 (TAAR1).; assay type: functional
T2 sequence (Q96RJ0 whole entry): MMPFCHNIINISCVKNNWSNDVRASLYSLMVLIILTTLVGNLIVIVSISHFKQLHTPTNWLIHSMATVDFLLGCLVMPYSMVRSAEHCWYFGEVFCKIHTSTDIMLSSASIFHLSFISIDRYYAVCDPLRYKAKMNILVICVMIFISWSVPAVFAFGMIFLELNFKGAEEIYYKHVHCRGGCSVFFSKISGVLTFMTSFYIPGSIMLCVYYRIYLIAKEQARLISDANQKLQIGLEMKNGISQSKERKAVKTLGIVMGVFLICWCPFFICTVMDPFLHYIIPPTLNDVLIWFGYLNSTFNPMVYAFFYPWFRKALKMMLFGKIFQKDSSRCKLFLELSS

[4] = cells; assay type: functional, cell-based; remark: listed apart in the source
[5] = molecular target: T2, Trace amine-associated receptor 1; test: Counterscreen for agonists of the human trace amine associated receptor 1 (hTAAR1): Fluorescence-based cell-based high throughput dose response assay to identify hTAAR1 agonist that also desensitize TAAR1 receptor response.; assay type: functional
[6] = molecular target: T3, Streptokinase A (Streptococcus pyogenes serotype M1, UniProt P10520); test: S. pyogenes streptokinase expression inhibitors, potency, dose response, plasminogen activation absorbance, OD405 (AID 1914); assay type: functional, Streptococcus pyogenes M1 GAS;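 also: secreted streptokinase activity via plasminogen activation per viability signal from cell pellet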
T3 sequence (P10520 whole entry): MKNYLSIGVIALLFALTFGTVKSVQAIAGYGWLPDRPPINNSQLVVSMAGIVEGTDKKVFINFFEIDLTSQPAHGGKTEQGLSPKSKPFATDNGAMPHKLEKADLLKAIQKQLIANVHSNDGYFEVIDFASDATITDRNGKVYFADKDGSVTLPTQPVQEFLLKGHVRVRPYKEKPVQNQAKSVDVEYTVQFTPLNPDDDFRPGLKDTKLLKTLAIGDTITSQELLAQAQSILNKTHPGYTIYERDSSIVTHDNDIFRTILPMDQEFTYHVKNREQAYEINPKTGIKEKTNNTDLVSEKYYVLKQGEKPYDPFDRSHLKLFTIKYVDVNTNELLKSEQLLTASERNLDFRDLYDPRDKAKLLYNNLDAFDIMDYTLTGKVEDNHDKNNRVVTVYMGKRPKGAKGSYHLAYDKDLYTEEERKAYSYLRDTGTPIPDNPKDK

[7] = molecular target: Aryl hydrocarbon receptor (Homo sapiens, UniProt P35869); test: Luminescence-based cell-based high throughput dose response assay for activators of the Aryl Hydrocarbon Receptor (AHR). [Related pubchem assays: 2796 (Primary screen (AHR activators in singlicate)), 2845 (Confirmation screen (AHR activators in triplicate)), 434939 (Counterscreen (PXR activators in triplicate)), 2804 (Summary (AHR activators))]; assay type: ADME
[8] = test system: H4; test: Luminescence Cell-Based Dose Response HTS to Identify Activators of 5'UTR Stem-Loop Driven Prion Protein mRNA Translation in H4 Neuroglioblastoma Cells. [Related pubchem assays: 1829 (Project Summary), 1814 (Primary HTS)]; assay type: functional; details: Homo sapiens
[9] = Luminescence Cell-Based Dose Confirmation to Identify Activators of 5'UTR Stem-Loop Driven Alpha-Synuclein mRNA Translation in H4 Neuroglioblastoma Cells. [Related pubchem assays: 1829 (Project Summary), 1814 (Primary HTS)]; assay type: functional
[10] = Luminescence Cell-Based Dose Response HTS to Identify Activators of Luciferase Translation or Activity in H4 […] Cells. [Related pubchem assays: 1829 (Project Summary), 1814 (Primary HTS)]; assay type: functional
[11] = Luminescence Cell-Based Dose Response to Identify Activators of Luciferase Translation or Activity in H4-C Neuroglioblastoma Cells. [Related pubchem assays: 1829 (Project Summary), 1814 (Primary HTS)]; assay type: functional
[12] = Luminescence Cell-Based Dose Response to Identify Activators of 5'UTR Stem-Loop Driven Prion Protein mRNA Translation in H4-C Neuroglioblastoma Cells. [Related pubchem assays: 1829 (Project Summary), 1814 (Primary HTS)]; assay type: functional
[13] = molecular target: Disintegrin and metalloproteinase domain-containing protein 17 (Homo sapiens, UniProt P78536); test: exosite inhibitors of ADAM17, dose response, biochemical (AID 743260)
[14] = ADAM10 protease inhibitors, dose response, selectivity assay for ADAM17 exosite inhibitor project, biochemical, FRET peptide substrate, recombinant human ADAM10 (AID 743259);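 also: ADAM10 enzyme cleaving a FRET peptide substrate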
[15] = molecular target: Mitogen-activated protein kinase 10 (Homo sapiens, UniProt P53779); test: Dose response biochemical screening assay for inhibitors of c-Jun N-Terminal Kinase 3 (JNK3). [Related pubchem assays: 746 ]
[16] = cells
[17] = molecular target: Major prion protein (Homo sapiens, UniProt P04156); assay type: functional, cell-based
[18] = molecular target: Albumin (Bos taurus, UniProt P02769); test: Counterscreen for inhibitors of T-cell receptor (TCR)-CD3 interaction: Fluorescence-based biochemical high throughput dose response assay to identify inhibitors of T-cell receptor (TCR)-CD3 interaction using a TAMRA-labeled BSA probe.; assay type: functional
[19] = molecular target: FAD-linked sulfhydryl oxidase ALR (Homo sapiens, UniProt P55789); test: inhibitors of human ALR sulfhydryl oxidase, dose response, biochemical, H2O2 detection, luminescence, cherry-pick (AID 493248)
[20] = T. cruzi growth inhibition in host cells, dose response, cell-based, plate reader, dry powder, set 2 (AID 652275); assay type: functional
[21] = molecular target: Heat shock protein HSP 90-alpha (Homo sapiens, UniProt P07900); test: Luminescence-based dose response biochemical high throughput screening assay for inhibitors of the Heat Shock Protein 90 (HSP90). [Related pubchem assays: 1831 (Summary AID.), 1846 (Confirmation screen.), 1789 (Primary screen.)]
[22] = molecular target: Cytochrome P450 2C9 (Homo sapiens, UniProt P11712)
[23] = molecular target: T4, Polyadenylate-binding protein 1 (Homo sapiens, UniProt P11940); test: PABP1 MLLE–PAM2 interaction inhibitors, dose response, miRNA deadenylation inhibitor project, biochemical, fluorescence polarization, Cy5-PAM2 peptide, secondary (AID 602260); assay type: functional; details: read-out: IC50_Mean
[24] = molecular target: T4, Polyadenylate-binding protein 1; test: PABP1 MLLE–PAM2 binding inhibitor potency, dose response, biochemical, fluorescence polarization, FITC-PAM2 peptide (AID 602259); assay type: functional; details: read-out: IC50_Mean
[25] = molecular target: T5, Carboxy-terminal domain RNA polymerase II polypeptide A small phosphatase 1 (Homo sapiens, UniProt Q9GZU7); test: inhibitors of CTDSP1, concentration-response testing, biochemical assay, absorbance-based, actives from ultra-high-throughput screening (AID 540297); assay type: functional
T5 sequence (Q9GZU7 whole entry): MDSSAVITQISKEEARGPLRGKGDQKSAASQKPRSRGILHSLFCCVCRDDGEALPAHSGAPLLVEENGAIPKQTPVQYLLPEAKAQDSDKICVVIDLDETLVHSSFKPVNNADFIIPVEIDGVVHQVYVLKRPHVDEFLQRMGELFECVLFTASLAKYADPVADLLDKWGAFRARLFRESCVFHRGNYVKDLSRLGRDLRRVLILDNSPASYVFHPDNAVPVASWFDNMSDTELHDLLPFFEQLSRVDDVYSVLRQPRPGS

[26] = molecular target: T6, Ubiquitin-conjugating enzyme E2 N (Homo sapiens, UniProt P61088); assay type: functional;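 also: Dose-response confirmation in a TR-FRET assay detecting UBC13-driven polyubiquitin chain formation, inhibition measured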
T6 sequence (P61088 whole entry): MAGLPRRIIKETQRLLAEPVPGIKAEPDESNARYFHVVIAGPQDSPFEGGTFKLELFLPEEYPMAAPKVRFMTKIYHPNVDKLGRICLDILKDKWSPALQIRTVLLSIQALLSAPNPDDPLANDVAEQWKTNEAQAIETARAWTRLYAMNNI

[27] = inhibitors of clade B AD8 Env fusion, dose response, cell-based, cherry-pick (AID 652062); assay type: functional;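 also: luciferase signal from cell-cell fusion driven by HIV-1 clade B AD8 Env; potency is for inhibitors of fusion seen as a drop in luminescence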
[28] = CEM21 lymphoblast cell cytotoxicity, dose response, cytotoxicity control for viral fusion inhibitor project, CellTiter-Glo luminescence, cherry-picked (AID 652042); assay type: functional, cell-based;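 also: potency for signal decrease meaning cytotoxicity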
[29] = molecular target: COUP transcription factor 2 (Homo sapiens, UniProt P24468); test: Luminescence-based cell-based high throughput dose response assay to identify inhibitors of COUP-TFII (NR2F2).; assay type: functional;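 also: HEK293 cells transiently cotransfected with COUP-TFII expression vector and reporter; luciferase reporter luminescence driven by COUP-TFII from the pX2-168 reporter plasmid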
[30] = off-target signal loss in HeLa-CEM21 co-culture – HeLa F-luc CTL cells, cherry-picked, counter-screen for HIV-1 Env fusion inhibitor project, dose response (AID 652040); assay type: functional, cell-based;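 also: potency for signal decrease marking cytotoxic or nonspecific inhibition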
[31] = PAX2 cell-based inhibition, dose response, selectivity assay for PAX8 inhibitor project, plate reader, dry powder samples (AID 743048); assay type: functional;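 also: HEK293 cells carrying a WT1 promoter luciferase reporter driven by expressed Pax2; potency is for inhibition of Pax2 driven reporter signal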
[32] = cytotoxicity dependent on PAX8, dose response, cell-based, plate reader, dry powder (AID 743049); assay type: functional
[33] = molecular target: Paired box protein Pax-8 (Homo sapiens, UniProt Q06710); test: inhibitors of PAX8-driven TPO luciferase reporter, dose response, RMG-I cells, cherry-pick (AID 687027); assay type: functional, cell-based;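 also: luciferase reporter driven by Pax8 target thyroperoxidase promoter measured by SteadyGlo luminescence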
[34] = PAX5 activity inhibitors, dose response, selectivity assay for PAX8 inhibitor project, cell-based, plate reader, dry powder samples (AID 743047); assay type: functional;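 also: HEK293 cells carrying a Pax5 driven CD19 promoter luciferase reporter; potency of inhibitors that lower reporter luminescence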
[35] = cytotoxicity in COV362 ovarian cancer cells, dose response, cytotoxicity control for PAX8 inhibitor project, cell-based, plate reader, dry powder, SA12 (AID 743144); assay type: functional
[36] = cytotoxicity in COV434 cells, dose response, cytotoxicity control for PAX8 inhibitor project, cell-based, plate reader, dry powder, SA7 (AID 743145); assay type: functional
[37] = inhibitors of HIV Env-driven cell fusion, dose response, cherry-pick (AID 652057); assay type: functional, cell-based

Cc1c(CNCCc2ccccc2)c(C(=O)O)c(C)n1-c1ccccc1
EC50 [1]: > 260 µM (inactive)
IC50 [2]: > 29.9 µM (inactive)
EC50 [3]: 1.78 µM (active)
EC50 [4]: > 29.9 µM (inactive)
IC50 [5]: 8.17 µM (active)

Cc1ccc(NC(=S)c2nc3ccccc3[nH]2)c(C)c1
EC50 [6]: > 150 µM (not active)
EC50 [7]: 3.65 µM (active)

CC(C)(C)c1ccc(OC(=O)N2CCCCC2)cc1
EC50 [8]: 44.5 µM (active)
EC50 [9]: 1.13 µM (active)
EC50 [10]: < 0.1 µM (active)
EC50 [11]: 0.364 µM (active)
EC50 [12]: 1.01 µM (active)

Cc1nn(Cc2ccccc2Cl)c2sc(C(=O)NCc3ccc4c(c3)OCO4)cc12
IC50 [13]: > 69.5 µM (inactive)
IC50 [14]: > 69.5 µM (inactive)

COC(=O)c1cccc(Cn2nnc3ccccc3c2=O)c1
IC50 [15]: 78.8 µM (not active)

COc1ccc(C(=O)NNC(=O)CSc2nc(C(C)C)nc3ccccc23)cc1
IC50 [16]: > 138 µM (inactive)
IC50 [17]: 1.98 µM (active)

COC(=O)c1cc(O)c(O)c(O)c1 [GALLIC ACID METHYL ESTER]
IC50 [18]: > 94.3 µM (inactive)
AC50 [19]: 4.94 µM (active)

O=c1[nH]c(=O)n(Cc2ccco2)c2c1C(C(F)(F)F)(C(F)(F)F)NC(CCc1ccccc1)=N2
IC50 [16]: 54.4 µM (inactive)
IC50 [17]: 8.51 µM (active)

CN(C)C(=O)c1cccc(-c2ccc([C@H]3[C@@H](CO)N4CCCCN(C(=O)C5CCCC5)C[C@@H]34)cc2)c1
AC50 [20]: 0.691 µM (active)

CCN(CC)c1ccc(SS(=O)(=O)O)cc1
IC50 [21]: 4.53 µM (active)
AC50 [22]: 5.01 µM (inconclusive)
IC50 [23]: > 66 µM (inactive)
IC50 [24]: > 66 µM (inactive)

CC(C)N1C[C@@H](CN(C)Cc2ccc(Cl)cc2)Oc2c(NC(=O)c3ccccc3)cccc2C1=O
AC50 [20]: 1.49 µM (active)

O=C(CCCCCn1c(SCc2ccncc2)nc2ccccc2c1=O)NCc1ccco1
IC50 [25]: 35.8 µM (active)
IC50 [15]: 73.1 µM (not active)
IC50 [26]: > 20 µM (inactive)

N#CCSc1nnc(-c2sc3ccccc3c2Cl)o1
AC50 [27]: 6.32 µM (active)
AC50 [28]: 46.4 µM (active)
IC50 [29]: 12 µM (inactive)
AC50 [30]: > 70 µM (inactive)

C[C@H](CO)N1C[C@H](C)[C@@H](CN(C)Cc2ccc(-c3ccccc3)cc2)Oc2ccc(NS(=O)(=O)c3ccccc3)cc2CC1=O
AC50 [31]: 8 µM (active)
AC50 [32]: 30.4 µM (active)
AC50 [33]: 17.4 µM (active)
AC50 [34]: 14.8 µM (active)
AC50 [35]: 26.3 µM (active)
AC50 [36]: 37.2 µM (active)

Cc1cccc(/C=N\Nc2cnnc(O)c2Cl)c1
IC50 [2]: > 29.9 µM (inactive)
AC50 [22]: 28.2 µM (inconclusive)
EC50 [3]: 1.28 µM (active)
AC50 [37]: 1.06 µM (active)
AC50 [30]: 0.76 µM (active)
EC50 [4]: > 29.9 µM (inactive)
IC50 [5]: 7.33 µM (active)
